From patent US11352551B2, “Proppant coatings containing antimicrobial agents” (Agienic, Inc., priority 2012, dated 2022)

Key:
[1] = system: Desulfovibrio vulgaris (ATCC 29579); assay: Activity against sulfate reducing bacteria (3-tube most probable number method); assay type: cell-based; conditions: 10 ppm (copper or gluteraldehyde); one hour; start 2×10^7 mpn/ml; SRB2 media
[2] = room temperature; cited from earlier work

| SMILES | log10 reduction of D. vulgaris [1] | Water solubility [2] |
| --- | --- | --- |
| [Cl][Cu][Cl] [CuCl2, copper (II) chloride] | less than 3 log10 |  |
| [Cu][Br] [CuBr, Copper(I) bromide] |  | 0.011 mg/mL |
| [Cl-].[Cl-].[Zn+2] [ZnCl2, zinc chloride] |  | 4300 mg/mL |
| O=CCCCC=O [gluteraldehyde] | greater than 4.23 log10 |  |
